Results as given in US20190105369A1, “CD31SHED AGONISTS FOR USE IN THE PREVENTION AND/OR TREATMENT OF REPERFUSION INJURY” (INSTITUT NATIONAL DE LA SANTE ET DE LA RECHERCHE MEDICAL …, priority 2016, published 2019).
“Also recorded” adds a separate entry of the source. Non-standard residues stand in square brackets, D forms with d. No end group written: not given here.

Tests used:
[1] = system: Rats; experiment: Model of mesenteric ischemia-reperfusion (mesenteric artery clamped 30 minutes, reperfusion 4 hours); type: in vivo
Protocol: Rats are anesthetized by urethane I.P. A catheter is introduced in the right jugular vein for venous sampling, treatment administration, and solute perfusion (NaCl 0.9%, 10 μl/H/g b.w.) during all the experimental period. A catheter is introduced in the left internal carotid artery for arterial blood pressure monitoring and another one in the bladder for urine collection. […] The aortic ostium of the mesenteric artery is controlled. The intravenous administration of the peptide is initiated 5 minutes before clamping the mesenteric artery and after blood sampling (T0). Then, the mesenteric artery is clamped (total occlusion) for 30 minutes creating mesenteric ischemia. Blood sampling is performed at the end of the mesenteric ischemia period (T0.5). The mesenteric artery is then unclamped and reperfusion is follow-up to 4 hours. New blood samplings are performed each hour (T1.5, 2.5, 3.5, 4.5). The animal is sacrificed at the end of the experimental period after a last blood sampling. Urines are collected and diuresis measured each hour. At sacrifice, the ischemic intestine is sampled. One fragment is extruded in order to measure hemoglobin content. The other one is fixed in paraformaldehyde for histology. Several intermediary biological criteria are use in order to characterize the ischemia-reperfusion injury and to evaluate the beneficial effect of the CD31^shed agonist peptide: plasma and urinary free DNA (Picogreen fluorescent intercalant, Invitrogen), from neutrophil origin, traducing neutrophil activation and death, intra-intestinal lumen hemoglobin content (acid formic reaction, Calbiochem kit), traducing epithelial injury, Myeloperoxidase (MPO) content in the intestinal mucosa, reflecting the local accumulation and activation of neutrophils, plasma soluble p-selectin and MMP9 content, reflecting systemic neutrophil activation, as p-selectin is released by a cleavage from the surface of activated neutrophils (and platelets) and MMP9 is contained in the azurofilic granules of the neutrophils and is released early upon neutrophil degranulation. Finally, the extent of mucin film protection was evaluated by histology of the intestinal wall (Alcian blue staining).

[2] = system: thrombin generation; details: cited from earlier work
[3] = system: human platelet; details: cited from earlier work
[4] = system: apolipoprotein E knockout mice; experiment: Model of myocardial ischemia-reperfusion (coronary artery ligation 45 min, reperfusion 24 h); type: in vivo
Protocol: FIG. 2: Effect of P8RI (10 mg/Kg P8RI by subcutaneous injection, 2 minutes prior to reperfusion) on the area at risk and size of myocardial infarction in apolipoprotein E knockout mice (female, 18 week-old) subjected to 45 minutes of ischemia by ligation of the coronary artery, followed by 24 hours of reperfusion. […] P8RI: mice receiving P8RI (n=5); Control: mice receiving a similar volume of vehicle (PBS) without P8RI (n=5). T-Test.
In order to reproduce the ischemia-reperfusion injury in the setting of coronary atherosclerosis (as it occurs in patients) were used 18 week-old female apolipoprotein E knockout mice (N=12/group) which typically develop coronary atherosclerosis by the age of 16 week (Caligiuri et al., Atherosclerosis. 1999 August;145(2):301-8). Mice were subjected to surgical ligation of the left main coronary artery, according to the method described by Michael et al. (Am J Physiol. 1995 December;269(6 Pt 2):H2147-54). After 43 minutes of ischemia, the mice received either P8RI (10 mg/kg) or the vehicle (PBS) by subcutaneous injection and 2 minutes later the ischemic area was reperfused by reopening of the ligated coronary artery. The next day, the mice were re-anesthetized, the chest reopened and the coronary ligature re-tied; the coronary tree was then rinsed with 2 ml of PBS pushed in the coronary tree through retrograde cannulation of the left carotid artery and the non-ischemic area stained by the injection of 50 μl of evan's blue (3% in PBS) in the same cannula. The heart was then quickly removed from the chest and immersed in a saturated KCl solution (to stop the heart in diastole) and rinsed in PBS. […] Each slice was photographed and the area at risk (AAR, negatively stained by the evan's blue) and the necrotic area (MI, negatively stained in red by the TTC solution) were then measured by computer-assisted image analysis.
The AAR, expressed as % of the left ventricle (LV) surface and the necrotic area (MI, expressed as percentage of the AAR and of the LV) were calculated on each slice. The data shown in FIG. 2 are expressed as mean±SEM.

[5] = intravenous perfusion, vs controls
[6] = mesenteric artery transient occlusion model
[7] = 10 mg/kg subcutaneous, 2 minutes prior to reperfusion, 24 hours of reperfusion, vs vehicle (PBS)

## kwpalfvr ([dK][dW][dP][dA][dL][dF][dV][dR]) [Peptide P8RI, CD31shed agonist]
[1]; intravenous perfusion, at sacrifice, controls 317.1±93.27
  hemoglobin content in the intestine lumen: 129.4±47.39 μg/mg prot
[1]; intravenous perfusion, histology
  epithelial villosity abrasion, epithelium desquamation: protect
[1]; intravenous perfusion, vs control rats, data not shown
  mucin / mucus film integrity (histology of the intestinal wall, Alcian blue staining): histological conservation of mucus; also recorded: preserved most of the mucin film
[1]; [5]
  free hemoglobin within the intestinal lumen (ratio, normalized by total protein content): decreased
  free myeloperoxidase MPO in the intestinal mucosa (direct ELISA, optical density): decreased; also recorded: significantly decrease
  plasma MMP9, cumulative concentration (area under the curve of the different time points): decreased; also recorded: significantly decrease
[1]; intravenous, initiated 5 minutes before clamping, vs control rats
  free DNA in the plasma over time: arrest of the progressive increase; also recorded: remains low and similar to sham-operated rats; also recorded: significantly reduces the progressive increase
[1]; intravenous, initiated 5 minutes before clamping, vs controls
  urinary free DNA: reduced; also recorded: significantly reduces the progressive increase
[1]; [6]
  LPS secretion in blood: decrease
  bacterial translocation: prevented
  intestinal necrosis: prevented
[2]
  thrombin generation: reduces
[3]
  human platelet aggregation: reduces
[4]; [7]
  size of myocardial infarction (MI) as percentage of the area at risk (AAR): significantly effective in reducing
  size of myocardial infarction (MI) as percentage of the left ventricle (LV): significantly effective in reducing
[4]; administration during the ischemia-reperfusion period, vs non-treated control mouse
  size of the necrotic areas: strongly decrease
